Results: the NIST ThermoML archive (doi:10.1021/acs.jced.5b00156)
± gives the expanded uncertainty stated by the source.

Key:
[1] = refractive index (Na D-line) (dimensionless); settings: 101.33 kPa, Liquid, Standard Abbe refractometry
[2] = 101.33 kPa, Liquid; for viscosity: Concentric cylinders viscometry; for mass density: vibrating tube

COC(=O)c1ccccc1C(=O)OC [dimethyl 1,2-benzenedicarboxylate]
Settings	mass density, [2] [kg/m3]	refractive index, [1]	viscosity, [2] [mPa·s]
288.15 K	1196.23 ± 0.33	1.51708 ± 0.00053	23.53 ± 0.49
293.15 K	1191.54 ± 0.33	1.51494 ± 0.00053	17.7 ± 0.37
298.15 K	1186.87 ± 0.33	1.51286 ± 0.00053	13.93 ± 0.29
303.15 K	1182.2 ± 0.33	1.51083 ± 0.00053	11.15 ± 0.23
308.15 K	1177.55 ± 0.33	1.50885 ± 0.00053	9.123 ± 0.19
313.15 K	1172.91 ± 0.32	1.50693 ± 0.00053	7.612 ± 0.16
318.15 K	1168.28 ± 0.32	1.50507 ± 0.00053	6.453 ± 0.13
323.15 K	1163.65 ± 0.32	1.50303 ± 0.00053	5.578 ± 0.12

COC(=O)CCCCC(=O)OC [dimethyl 1,6-hexanedioate]
Settings	mass density, [2] [kg/m3]	refractive index, [1]	viscosity, [2] [mPa·s]
288.15 K	1066.79 ± 0.28	1.43082 ± 0.00053	3.778 ± 0.079
293.15 K	1061.92 ± 0.27	1.42876 ± 0.00053	3.313 ± 0.069
298.15 K	1057.05 ± 0.27	1.42669 ± 0.00053	2.937 ± 0.062
303.15 K	1052.18 ± 0.27	1.42463 ± 0.00053	2.629 ± 0.055
308.15 K	1047.3 ± 0.27	1.42255 ± 0.00053	2.366 ± 0.05
313.15 K	1042.41 ± 0.27	1.42048 ± 0.00053	2.143 ± 0.045
318.15 K	1037.52 ± 0.26	1.41835 ± 0.00053	1.953 ± 0.041
323.15 K	1032.62 ± 0.26	1.41631 ± 0.00053	1.794 ± 0.038
